Values of other authors in patent publication US20100151037A1, “METHOD FOR THE PREPARATION OF NANOPARTICLES CONTAINING A POORLY WATER-SOLUBLE […] ACTIVE COMPOUND” (priority 2008, published 2010).

Conditions: dry powder form

In the case of `COC1=C(OC)C(=O)C(C/C=C(\C)CC/C=C(\C)CC/C=C(\C)CC/C=C(\C)CC/C=C(\C)CC/C=C(\C)CC/C=C(\C)CC/C=C(\C)CC/C=C(\C)CCC=C(C)C)=C(C)C1=O` [Coenzyme Q10], the bioavailability is given as “as low as three percent”.
